Laboratory results reported in ChEMBL document CHEMBL5661983, “The selective anaplastic lymphoma receptor tyrosine kinase inhibitor ASP3026 induces tumor regression and prolongs survival in non-small cell lung cancer model mice” (Mol Cancer Ther, 2014).
The source made the active and inactive calls. The rule behind the calls is not given here.

Assays:
Ephrin type-A receptor 6 = Ephrin type-A receptor 6 (Homo sapiens, UniProt Q9UF33)
[1] = target: T1, ALK tyrosine kinase receptor (Homo sapiens, UniProt Q9UM73)
[2] = target: Tyrosine-protein kinase receptor TYRO3 (Homo sapiens, UniProt Q06418)
Tyrosine-protein kinase receptor TYRO3, sequence (Q06418 whole entry): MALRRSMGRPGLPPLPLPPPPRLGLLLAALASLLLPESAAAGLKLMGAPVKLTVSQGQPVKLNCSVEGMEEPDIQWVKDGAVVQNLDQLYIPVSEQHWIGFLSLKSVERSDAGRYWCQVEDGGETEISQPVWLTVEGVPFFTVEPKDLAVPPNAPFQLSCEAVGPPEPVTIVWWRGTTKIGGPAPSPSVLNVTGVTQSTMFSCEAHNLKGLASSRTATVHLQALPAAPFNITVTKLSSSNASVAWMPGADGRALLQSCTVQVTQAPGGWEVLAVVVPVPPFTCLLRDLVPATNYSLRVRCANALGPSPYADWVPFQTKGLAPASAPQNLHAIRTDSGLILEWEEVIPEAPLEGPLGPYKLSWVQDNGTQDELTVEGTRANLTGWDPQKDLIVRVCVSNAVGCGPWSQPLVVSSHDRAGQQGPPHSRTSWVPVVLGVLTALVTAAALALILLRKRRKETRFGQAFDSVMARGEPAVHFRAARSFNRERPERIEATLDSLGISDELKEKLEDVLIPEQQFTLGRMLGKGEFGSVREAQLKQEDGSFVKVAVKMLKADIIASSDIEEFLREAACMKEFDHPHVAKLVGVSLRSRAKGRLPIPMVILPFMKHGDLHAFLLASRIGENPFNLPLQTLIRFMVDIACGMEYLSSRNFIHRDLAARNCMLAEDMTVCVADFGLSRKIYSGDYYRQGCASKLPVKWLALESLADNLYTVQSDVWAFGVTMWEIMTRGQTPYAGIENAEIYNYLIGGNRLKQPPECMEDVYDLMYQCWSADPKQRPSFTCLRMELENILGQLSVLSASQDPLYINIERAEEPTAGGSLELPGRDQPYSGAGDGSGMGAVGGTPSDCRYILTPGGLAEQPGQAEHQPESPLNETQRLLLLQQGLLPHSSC

[3] = target: BDNF/NT-3 growth factors receptor (Homo sapiens, UniProt Q16620)
[4] = Ratio of drug level in tumor to plasma of hEML4-ALK transgenic C57BL/6J mouse at 10 to 100 mg/kg, po administered daily for 10 days and measured 24 hrs post-last dose; format: ADME, organism-based; conditions: dose 10-100 mg/kg, time 11 day
NCI-H2228-Luc [5] = assay: Antitumor activity against human NCI-H2228-Luc cells intrapleurally xenografted in NOD.CB17-Prkdcscid/J mouse assessed as median survival time at 3 mg/kg, po administered once daily for 7 weeks starting from 14 days post-cell inoculation measured up to 90 days (reference value: 39 day); format: functional; conditions: time 90 day
[6] = Selectivity ratio of IC50 for EML4-ALK L1196M mutant (unknown origin) transformed in mouse BaF3 cells to IC50 for EML4-ALK (unknown origin) transformed in mouse BaF3 cells; parameters: species or system Homo sapiens; conditions: condition non-small cell lung carcinoma
[7] = target: Muscle, skeletal receptor tyrosine-protein kinase (Homo sapiens, UniProt O15146)
Muscle, skeletal receptor tyrosine-protein kinase, sequence (O15146 whole entry): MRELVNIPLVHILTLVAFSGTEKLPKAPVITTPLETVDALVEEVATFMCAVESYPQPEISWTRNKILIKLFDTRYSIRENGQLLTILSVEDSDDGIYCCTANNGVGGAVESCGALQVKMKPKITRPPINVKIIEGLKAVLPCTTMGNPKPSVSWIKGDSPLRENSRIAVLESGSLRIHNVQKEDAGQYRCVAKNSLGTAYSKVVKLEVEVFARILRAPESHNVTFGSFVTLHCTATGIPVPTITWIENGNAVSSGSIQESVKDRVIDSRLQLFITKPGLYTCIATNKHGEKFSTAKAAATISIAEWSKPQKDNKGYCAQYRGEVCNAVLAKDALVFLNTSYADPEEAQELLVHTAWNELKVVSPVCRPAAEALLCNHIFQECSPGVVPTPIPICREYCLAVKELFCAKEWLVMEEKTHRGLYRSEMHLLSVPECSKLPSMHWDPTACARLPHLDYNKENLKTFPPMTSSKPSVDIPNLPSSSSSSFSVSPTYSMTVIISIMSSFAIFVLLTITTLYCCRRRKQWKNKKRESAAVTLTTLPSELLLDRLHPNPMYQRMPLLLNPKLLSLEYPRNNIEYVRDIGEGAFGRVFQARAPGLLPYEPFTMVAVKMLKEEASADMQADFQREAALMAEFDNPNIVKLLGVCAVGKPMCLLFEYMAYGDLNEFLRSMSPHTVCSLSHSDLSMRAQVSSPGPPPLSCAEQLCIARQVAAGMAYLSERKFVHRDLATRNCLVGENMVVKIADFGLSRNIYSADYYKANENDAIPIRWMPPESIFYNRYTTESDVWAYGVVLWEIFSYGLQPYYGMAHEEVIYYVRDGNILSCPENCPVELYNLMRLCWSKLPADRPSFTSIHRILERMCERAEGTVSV

Mus musculus = assay: Antitumor activity against hEML4-ALK transgenic C57BL/6J mouse assessed as reduction in tumor mass at 100 mg/kg, po administered daily for 10 days and measured on day 11 by computed tomography scan analysis; format: functional, organism-based; conditions: time 11.0 day
[8] = target: Leukocyte tyrosine kinase receptor (Homo sapiens, UniProt P29376)
NCI-H2228-Luc [9] = assay: Antitumor activity against human NCI-H2228-Luc cells intrahepatically xenografted in NOD.CB17-Prkdcscid/J mouse assessed as reduction in tumor burden by measuring bioluminescence emission at 30 mg/kg, po administered once daily for 3 weeks starting from 14 days post-cell inoculation and measured on day 19 by bioluminescent imaging analysis (reference value: 3.3 x 10^8 photon/sec); format: functional; conditions: time 19 day
[10] = Cmax in human NCI-H2228 cell xenografted NOD.CB17-Prkdcscid/J mouse plasma at 1 mg/kg/day for 5 days by HPLC-MS analysis; format: ADME, organism-based; conditions: route po, time 5 day
[11] = target: Tyrosine-protein kinase receptor UFO (Homo sapiens, UniProt P30530)
NCI-H2228 [12] = assay: Antitumor activity against human NCI-H2228 cells xenografted in NOD.CB17-Prkdcscid/J mouse assessed as tumor regression at 1 mg/kg, po administered once daily for 2 weeks relative to control; format: functional
[13] = Ratio of Cmax in human NCI-H2228 cell xenografted NOD.CB17-Prkdcscid/J mouse tumor to plasma at 1 mg/kg/day for 5 days by HPLC-MS analysis; format: ADME, organism-based; conditions: tumor and plasma, route po, time 5 day
EML4-ALK = EML4-ALK (Homo sapiens, UniProt Q9UM73); format: cell-based, BaF3
Description: Inhibition of EML4-ALK (unknown origin) transformed in mouse BaF3 cells by HTRF assay

NCI-H2228 [14] = assay: Potentiation of paclitaxel-induced antitumor activity against human NCI-H2228 cells xenografted in NOD.CB17-Prkdcscid/J mouse assessed as increase in tumor regression at 10 mg/kg, po administered once daily for 5 days; format: functional, organism-based; conditions: time 5.0 day
[15] = target: Proto-oncogene tyrosine-protein kinase ROS (Homo sapiens, UniProt P08922)
Proto-oncogene tyrosine-protein kinase ROS, sequence (P08922 whole entry): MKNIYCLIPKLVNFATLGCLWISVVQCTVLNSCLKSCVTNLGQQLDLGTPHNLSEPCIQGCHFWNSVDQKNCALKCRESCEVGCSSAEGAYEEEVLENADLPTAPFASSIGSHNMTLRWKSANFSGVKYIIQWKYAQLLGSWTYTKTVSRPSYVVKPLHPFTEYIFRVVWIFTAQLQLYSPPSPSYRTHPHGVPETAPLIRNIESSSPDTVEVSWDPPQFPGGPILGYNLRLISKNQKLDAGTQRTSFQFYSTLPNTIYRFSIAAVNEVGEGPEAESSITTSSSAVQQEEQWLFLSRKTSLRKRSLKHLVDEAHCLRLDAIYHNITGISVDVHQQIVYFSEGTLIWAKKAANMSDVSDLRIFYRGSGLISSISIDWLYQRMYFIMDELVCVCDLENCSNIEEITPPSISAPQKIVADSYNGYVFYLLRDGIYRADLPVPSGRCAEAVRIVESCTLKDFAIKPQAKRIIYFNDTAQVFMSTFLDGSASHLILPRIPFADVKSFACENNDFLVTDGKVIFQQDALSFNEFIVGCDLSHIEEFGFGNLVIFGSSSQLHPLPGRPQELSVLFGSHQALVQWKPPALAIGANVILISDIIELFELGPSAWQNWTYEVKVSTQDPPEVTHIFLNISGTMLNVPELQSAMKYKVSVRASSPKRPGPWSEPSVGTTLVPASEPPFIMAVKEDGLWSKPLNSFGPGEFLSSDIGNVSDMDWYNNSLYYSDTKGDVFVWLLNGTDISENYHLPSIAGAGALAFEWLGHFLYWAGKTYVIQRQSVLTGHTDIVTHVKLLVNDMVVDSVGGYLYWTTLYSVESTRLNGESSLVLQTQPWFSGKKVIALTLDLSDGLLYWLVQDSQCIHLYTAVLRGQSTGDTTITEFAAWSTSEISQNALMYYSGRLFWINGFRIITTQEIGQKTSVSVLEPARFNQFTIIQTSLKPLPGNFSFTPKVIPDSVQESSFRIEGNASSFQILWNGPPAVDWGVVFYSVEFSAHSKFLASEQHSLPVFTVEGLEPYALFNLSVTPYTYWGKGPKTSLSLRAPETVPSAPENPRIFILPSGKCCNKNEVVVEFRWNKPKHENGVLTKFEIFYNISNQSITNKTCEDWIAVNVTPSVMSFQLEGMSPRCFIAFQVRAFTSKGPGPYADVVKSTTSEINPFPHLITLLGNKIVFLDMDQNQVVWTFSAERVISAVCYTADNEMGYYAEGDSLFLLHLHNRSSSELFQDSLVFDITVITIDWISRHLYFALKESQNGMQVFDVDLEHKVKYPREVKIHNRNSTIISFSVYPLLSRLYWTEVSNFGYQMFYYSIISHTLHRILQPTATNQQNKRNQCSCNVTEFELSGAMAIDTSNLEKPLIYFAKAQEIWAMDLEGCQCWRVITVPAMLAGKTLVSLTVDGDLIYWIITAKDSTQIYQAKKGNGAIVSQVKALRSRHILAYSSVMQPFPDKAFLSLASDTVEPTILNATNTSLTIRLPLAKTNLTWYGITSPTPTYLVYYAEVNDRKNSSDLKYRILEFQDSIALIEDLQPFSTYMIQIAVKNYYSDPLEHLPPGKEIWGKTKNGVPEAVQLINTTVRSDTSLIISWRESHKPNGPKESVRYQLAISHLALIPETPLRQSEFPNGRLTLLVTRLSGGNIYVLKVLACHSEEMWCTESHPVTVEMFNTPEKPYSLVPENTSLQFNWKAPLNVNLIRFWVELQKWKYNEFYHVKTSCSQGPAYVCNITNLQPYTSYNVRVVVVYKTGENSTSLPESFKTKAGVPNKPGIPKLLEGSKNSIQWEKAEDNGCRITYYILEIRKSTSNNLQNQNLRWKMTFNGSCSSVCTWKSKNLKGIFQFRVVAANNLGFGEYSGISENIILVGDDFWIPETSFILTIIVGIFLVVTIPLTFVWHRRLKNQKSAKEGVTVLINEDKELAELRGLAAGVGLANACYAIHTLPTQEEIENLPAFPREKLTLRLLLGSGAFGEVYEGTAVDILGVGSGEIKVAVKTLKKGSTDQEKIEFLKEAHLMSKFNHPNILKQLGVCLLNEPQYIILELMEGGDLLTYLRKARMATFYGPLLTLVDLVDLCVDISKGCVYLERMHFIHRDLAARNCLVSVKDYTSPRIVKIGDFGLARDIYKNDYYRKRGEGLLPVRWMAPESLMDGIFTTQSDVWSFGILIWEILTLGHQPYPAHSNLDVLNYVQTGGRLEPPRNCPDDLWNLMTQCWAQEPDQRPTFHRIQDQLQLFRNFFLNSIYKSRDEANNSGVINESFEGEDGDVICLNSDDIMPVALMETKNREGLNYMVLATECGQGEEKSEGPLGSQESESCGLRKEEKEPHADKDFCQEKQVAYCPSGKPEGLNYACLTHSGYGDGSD

[16] = target: T1, ALK tyrosine kinase receptor; assay: Inhibition of ALK in human NCI-H2228 cells assessed as reduction in ERK phosphorylation by measuring phosphorylated ERK level at 10 nmol/L measured after 4 hrs by Western blot analysis relative to control; format: cell-based; parameters: scale not given: the % may be the effect or the level left
NCI-H2228 [17] = assay: Potentiation of pemetrexed-induced antitumor activity against human NCI-H2228 cells xenografted in NOD.CB17-Prkdcscid/J mouse assessed as reduction in tumor volume at 10 mg/kg, po administered once daily for 5 days; format: functional, organism-based; conditions: time 5.0 day
Activated CDC42 kinase 1 = Activated CDC42 kinase 1 (Homo sapiens, UniProt Q07912)
Activated CDC42 kinase 1, sequence (Q07912 whole entry): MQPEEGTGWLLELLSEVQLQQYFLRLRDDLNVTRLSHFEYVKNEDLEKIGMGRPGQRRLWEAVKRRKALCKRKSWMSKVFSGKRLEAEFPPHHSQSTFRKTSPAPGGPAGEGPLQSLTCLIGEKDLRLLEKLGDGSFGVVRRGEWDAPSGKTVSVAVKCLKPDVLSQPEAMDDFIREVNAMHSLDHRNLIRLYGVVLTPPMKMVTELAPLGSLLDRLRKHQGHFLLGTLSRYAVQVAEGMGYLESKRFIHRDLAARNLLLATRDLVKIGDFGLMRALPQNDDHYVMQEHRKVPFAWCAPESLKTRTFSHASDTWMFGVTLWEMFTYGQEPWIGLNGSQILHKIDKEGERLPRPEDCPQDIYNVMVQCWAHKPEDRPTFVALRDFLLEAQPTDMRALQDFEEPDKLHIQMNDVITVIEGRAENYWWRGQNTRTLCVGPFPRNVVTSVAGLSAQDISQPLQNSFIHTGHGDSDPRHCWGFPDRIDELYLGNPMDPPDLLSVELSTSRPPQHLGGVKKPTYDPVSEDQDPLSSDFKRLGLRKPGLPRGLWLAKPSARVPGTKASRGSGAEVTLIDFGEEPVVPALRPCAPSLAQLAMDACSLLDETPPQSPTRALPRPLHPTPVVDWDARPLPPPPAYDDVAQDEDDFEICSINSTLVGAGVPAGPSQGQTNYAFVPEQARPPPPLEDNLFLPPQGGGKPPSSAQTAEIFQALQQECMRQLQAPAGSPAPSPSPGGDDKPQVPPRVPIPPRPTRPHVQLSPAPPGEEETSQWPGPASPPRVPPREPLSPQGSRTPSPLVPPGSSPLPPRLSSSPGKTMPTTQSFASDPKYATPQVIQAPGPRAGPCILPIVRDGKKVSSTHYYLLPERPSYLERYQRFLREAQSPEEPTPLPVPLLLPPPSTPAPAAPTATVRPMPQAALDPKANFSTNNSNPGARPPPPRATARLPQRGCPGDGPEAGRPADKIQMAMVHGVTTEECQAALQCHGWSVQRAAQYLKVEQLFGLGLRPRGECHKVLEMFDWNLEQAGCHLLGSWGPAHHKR

COc1cc(N2CCC(N3CCN(C)CC3)CC2)ccc1Nc1ncnc(Nc2ccccc2S(=O)(=O)C(C)C)n1 [ASP-3026]
IC50 (Ephrin type-A receptor 6): > 1000 nM | IC50 [1]: 3.5 nM | IC50 [2]: > 1000 nM | IC50 [3]: > 1000 nM | Kp at 264 h [4]: > 100 | MST (NCI-H2228-Luc [5]): 56.5 days | Ratio IC50 [6]: 3.2 | IC50 [7]: > 100 nM | Activity (Mus musculus): Active | IC50 [8]: 61 nM | Activity (NCI-H2228-Luc [9]): 7.7 10^6No_unit | Cmax [10]: 44.3 ng/mL | IC50 [11]: > 100 nM | Activity (NCI-H2228 [12]): 0% | Kp at 120 h [13]: 19 | IC50 (EML4-ALK): 10 nM | Activity (NCI-H2228 [14]): Active | IC50 [15]: 8.9 nM | Activity [16]: 101% | Activity (NCI-H2228 [17]): Active | IC50 (Activated CDC42 kinase 1): 5.8 nM
